Experimental data reported in PubChem BioAssay (NCI).
“And” between values parts separate entries of the source, which are not always exact repeats. Identical values can stand only once.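 Following 48 hours of exposure in 96-well plates, responses at five concentrations were used to interpolate endpoints linearly. The concentration for 50% growth inhibition is given as GI50. Definition used: TGI = concentration required for complete inhibition of growth.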

Key:
Assay in all cases: NCI tumour cell line growth inhibition, 48 h
HCC-2998 colon = tested on: HCC-2998 colon
K-562 leukemia = tested on: K-562 leukemia
SF-539 CNS = tested on: SF-539 CNS
MALME-3M melanoma = tested on: MALME-3M melanoma
SNB-19 CNS = tested on: SNB-19 CNS
CCRF-CEM leukemia = tested on: CCRF-CEM leukemia
SF-268 CNS = tested on: SF-268 CNS
SNB-75 CNS = tested on: SNB-75 CNS
BT-549 breast = tested on: BT-549 breast
T-47D breast = tested on: T-47D breast

Structure (SMILES) | TGI (HCC-2998 colon) [µM] | TGI (K-562 leukemia) [µM] | TGI (SF-539 CNS) [µM] | TGI (MALME-3M melanoma) [µM] | TGI (SNB-19 CNS) [µM] | TGI (CCRF-CEM leukemia) [µM] | TGI (SF-268 CNS) [µM] | TGI (SNB-75 CNS) [µM] | GI50 (SNB-75 CNS) [µM] | GI50 (K-562 leukemia) [µM] | GI50 (MALME-3M melanoma) [µM] | GI50 (CCRF-CEM leukemia) [µM] | GI50 (SF-268 CNS) [µM] | GI50 (HCC-2998 colon) [µM] | GI50 (BT-549 breast) [µM] | TGI (BT-549 breast) [µM] | GI50 (SF-539 CNS) [µM] | GI50 (SNB-19 CNS) [µM] | TGI (T-47D breast) | GI50 (T-47D breast)
COC(=O)CC(c1ccccc1)C1(c2ccccc2)SCCS1 (configuration not stated) | > 290 | > 290 | > 290 | > 290 | > 290 | > 290 | > 290 |  |  |  |  |  |  |  |  |  |  |  |  | 
O=S(=O)(N/N=C/c1cccc(/C=N/NS(=O)(=O)c2ccccc2)c1)c1ccccc1 | > 100 | > 100 | > 100 | > 100 |  | > 100 | > 100 | > 100 |  |  |  |  |  |  |  |  |  |  |  | 
C=C(C)CCOC(c1ccccc1)(c1ccccc1)c1ccccc1 | > 100 | > 100 | > 100 | > 100 | > 100 | > 100 | > 100 | > 100 |  |  |  |  |  |  |  |  |  |  |  | 
S=c1sc2c(n1-c1ccccc1)NC=NC2S (configuration not stated) | > 100 | > 100 | > 100 | > 100 | > 100 | > 100 | > 100 | > 100 |  |  |  |  |  |  |  |  |  |  |  | 
O=c1ccc2ccccc2cc1[O-].O=c1ccc2ccccc2cc1[O-].[O]=[U+2]=[O] |  | > 100 |  | 26.3 |  | > 100 | 51.8 | 32.8 | 14 | 6.75 | 5.72 | 6.14 | 22.2 |  |  |  |  |  |  | 
Nc1cc(NN=C(c2ccc(O)cc2)c2ccc(O)cc2)c([N+](=O)[O-])cc1[N+](=O)[O-] | 3.51 | 31.7 | 3.85 | 5.96 | 7.12 | 6.13 | 3.45 | 3.92 | 1.45 | 3.62 | 2.45 | 2.54 | 1.73 | 1.57 | 2.46 | 6.78 | 1.7 | 2.32 |  | 
C/C(=N/Nc1ccc([N+](=O)[O-])cc1[N+](=O)[O-])C(CC(C(=O)NCc1ccccc1)/C(C)=N\Nc1ccc([N+](=O)[O-])cc1[N+](=O)[O-])C(=O)NCc1ccccc1 (configuration not stated) | 33.9 |  | 14.9 | 30.8 | 31 |  | 16.5 | 12.4 |  |  |  |  |  |  |  |  |  |  |  | 
CC(=O)NNc1nc(C)c(C(=O)/C=C/c2ccc(NC(C)=O)cc2)s1 | > 100 | > 100 | > 100 | > 100 | > 100 | > 100 | > 100 | > 100 |  |  |  |  |  |  |  |  |  |  |  | 
O=C(Nc1ccccc1-c1nn(C(=S)Nc2ccccc2)c(=S)n(C(=S)Nc2ccccc2)c1=O)C(F)(F)F | > 72.5 | > 95.6 | > 100 | > 79.1 | > 100 | 62.1 | > 100 | > 88.1 |  |  |  |  |  |  |  |  |  |  |  | 
COc1cc(/C(C#N)=C/c2nc3c(N4CCOCC4)nc(Cl)nc3n2C)cc(OC)c1OC | 2.19 | > 38.4 | < 0.01 | 20.8 | > 100 | 0.668 | > 26.8 |  |  | < 0.01 | < 0.01 | < 0.01 | < 0.0118 | < 0.0157 | < 0.01 | 0.481 | < 0.01 | < 0.01 | 5.63 µM | 
CC(C)(C)c1cc2ccc(C(N)=O)cc2c(=O)[nH]1 | > 100 | > 100 | > 100 | > 100 | > 100 | > 100 | > 100 | > 100 |  |  |  |  |  |  |  |  |  |  |  | 
CC(=O)OCCOCNC(=S)N/N=C(\C)c1cnccn1 | > 100 | > 100 | > 100 | > 100 | > 100 | > 100 | > 100 | > 100 |  |  |  |  |  |  |  |  |  |  |  | 
Cc1ccc(Oc2ccc(C)cc2N)cc1 | > 100 | > 100 | > 100 | > 100 | > 100 | > 100 | > 100 | 73.3 |  |  |  |  |  |  |  |  |  |  |  | 
Cc1csc(-c2nnc(Nc3ccc(Oc4ncccc4-c4ccnc(N)n4)cc3)c3ccccc23)c1 | > 30.2 | > 100 | > 100 | > 100 | > 100 | > 100 |  |  |  | 3.15 | 1.9 | 0.234 |  | 2.54 | > 100 | > 100 | > 100 | > 100 | > 100 µM | 5 µM
CC(C)(C)c1cc2c(O)c3cccc4c(=O)c5cccc6c5-c(c34)c2c(c1)c6=O | 0.0657 | > 100 |  | > 100 | > 100 | > 100 | > 100 | > 100 |  |  |  |  |  |  |  |  |  |  |  | 
COc1cc(-c2ccc3cc(OC)c(OC)c(OC)c3c2)cc(OC)c1OC | > 100 | > 100 | > 100 | > 100 | > 100 | > 100 | > 100 |  |  | 5.07 | 8.75 | > 100 | 24 | > 100 | 30.1 | > 100 | 23.6 | 75.1 |  | 
Cc1ccc(/C=C/C(=O)CCN(C)C)cc1 | 32.1 | > 100 | 31.3 | 39.7 | > 100 | 72.4 | 47.5 | 35.1 |  |  |  |  |  |  |  |  |  |  |  | 
COc1nc(NC2OC(COC(C)=O)C(OC(C)=O)C(OC(C)=O)C2OC(C)=O)c2c(OC(C)=O)cc(=O)oc2n1 (configuration not stated) | > 100 | > 100 | > 100 | > 100 | > 100 | > 100 |  | > 100 |  |  |  |  |  |  |  |  |  |  |  | 
CCCCCCCCCCCCCCCC[N+](C)(C)Cc1ccccc1 | 2.38 |  |  | 2.72 |  |  |  | 2.76 | 1.34 |  | 1.24 |  |  | 0.923 |  |  |  |  | 5.62 µM and 6.1 µM | 1.31 µM and 1.48 µM
N[C@@H]1CCCC[C@@H]1N.O=P([O-])([O-])CN(CCN(CP(=O)([O-])[O-])CP(=O)([O-])[O-])CP(=O)([O-])[O-].[Pt+2] | > 25 | > 25 | > 25 | > 25 | > 25 |  | > 25 | > 25 | > 25 | > 25 | > 25 |  | > 25 | > 25 |  |  | > 25 | > 25 |  | 
